Calls of active or inactive are those of the source.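 How the source made its calls: active means IC50 at or below 20 µM; inactive means the rest.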
Test system: 697 B-cell NF-kB luciferase reporter, PMA/ionomycin, 16 h
Assay: NF-kB reporter suppression in 697 B cells – T-cell screen hits, luminescence, SAR follow-up (AID 504487)

SMILES | IC50
CCCC(=O)NC(c1ccc(C)cc1)c1ccc2cccnc2c1O (stereo not drawn) | > 79 µM (inactive)
COc1ccc(C(NC(C)=O)c2ccc3cccnc3c2O)cc1 (stereo not drawn) | > 79 µM (inactive)
CCCC(=O)NC(c1ccc(OC)cc1)c1ccc2cccnc2c1O (stereo not drawn) | > 79 µM (inactive)
COc1cccc(C(=O)Nc2ccc3[nH]c(-c4cccc(OC)c4)cc(=O)c3c2)c1 | > 79 µM (inactive)

Other lines, results leading:

IC50 | SMILES
> 79 µM (inactive) | CCCC(=O)NC(c1ccccc1OC)c1ccc2cccnc2c1O (stereo not drawn)
> 79 µM (inactive) | CCCC(=O)NC(c1ccccc1)c1ccc2cccnc2c1O (stereo not drawn)
> 79 µM (inactive) | COc1ccc(C(NC(=O)c2ccccc2)c2ccc3cccnc3c2O)cc1 (stereo not drawn)
> 79 µM (inactive) | CCCC(=O)NC(c1ccc(Cl)cc1)c1ccc2cccnc2c1O (stereo not drawn)
